We go through 3 molecules from US5028626A, “Peptides with pharmaceutical activity” (Zambon Group S.p.A., priority 1988, dated 1991).

In assay [1] the target is T1, purified aminopeptidase obtained from hog kidney (leucineaminopeptidase) (Sus scrofa, UniProt P28839).
T1 construct: a purified aminopeptidase obtained from hog kidney; purchased Baehringer (so in the source); host or cells: hog kidney tissue
T1 sequence (P28839 1-519): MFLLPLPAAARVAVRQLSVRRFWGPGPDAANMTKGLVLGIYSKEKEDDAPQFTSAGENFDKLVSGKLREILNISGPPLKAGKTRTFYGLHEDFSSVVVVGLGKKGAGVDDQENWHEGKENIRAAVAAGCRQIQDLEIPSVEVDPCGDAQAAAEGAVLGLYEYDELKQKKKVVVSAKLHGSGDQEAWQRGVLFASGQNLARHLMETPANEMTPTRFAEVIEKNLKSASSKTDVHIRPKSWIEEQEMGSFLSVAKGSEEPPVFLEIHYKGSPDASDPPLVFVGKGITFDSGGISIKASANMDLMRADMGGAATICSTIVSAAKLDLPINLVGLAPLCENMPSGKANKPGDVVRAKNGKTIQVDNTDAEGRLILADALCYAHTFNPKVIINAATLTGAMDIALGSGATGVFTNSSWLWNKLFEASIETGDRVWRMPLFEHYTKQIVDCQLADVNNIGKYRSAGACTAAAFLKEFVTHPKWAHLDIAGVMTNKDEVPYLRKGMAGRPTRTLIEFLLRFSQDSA
In words: Inhibitory effect on leucineaminopeptidase activity (L-leucinamide hydrolysis, absorbance at 238 nm). The format is biochemical. Conditions: leucineamide 50 mM, tris-HCl pH 8.5, MgCl2 5 mM, 25° C., read-out: IC50 (concentration of the compound inducing a 50% decrease of the enzymatic activity). An excerpt:
(§1) The activity of the compounds of formula I has been evaluated as inhibitory effect on the activity of leucineaminopeptidase and as stimulating effect on the mitogenetic activity of mouse splenic lymphocytes.
The inhibitory effect of the tested compounds has been evaluated on a purified aminopeptidase obtained from hog kidney (Baehringer, 100U/mg).
The enzymatic activity was estimated spectrophotometrically by using L-leucinamide as substrate and by measuring the hydrolysis of the peptide bond as decrease of absorbance at 238 nm.
The enzyme was activated prior to assay at 37° C. for 2 hours, in the presence of MgCl2 1 mM and tris-HCl buffer 20 mM pH 8.5 in a total volume of 2.5 ml.
The enzymatic reaction was followed at 238 nm for at least 30 minutes at 25° C. in 2.5 ml of an incubation medium containing 50 μg of enzyme, leucineamide 50 mM, tris-HCl buffer 20 mM pH 8.5 and MgCl2 5 mM in the absence or in the presence of increasing concentrations of the tested compound.
The inhibitory effect was expressed as the concentration of the compound inducing a 50% decrease of the enzymatic activity (IC50, nmoles/1).

In assay [2] the test system is mouse splenic lymphocytes. In words: Immunostimulating (mitogenetic) activity: 3H-timidine incorporation in mouse splenic lymphocytes. The format is cell-based, mouse (C3H/H2). The note with it: compound at 1 μM; 48 h + 24 h incubation with 3H-TMD. Here is the method: as §1
The immunostimulating activity has been evaluated as ability to stimulate the incorporation of ^3 H-timidine (^3 H-TMD) in a culture of mouse splenic lymphocytes.
The splenic cells were drawn form C3H/H2 mice (age: 6-8 weeks) and suspended in RPMI-1640 medium containing HEPES 20 mM and 10% bovine fetal serum (inactivated to heat) at the concentration of 5×10^6 cells/ml.
Cells were sowed of Microtest plates (Falcon 3072) in the absence and in the presence of different concentrations of the compounds of formula I in a volume of 0.2 ml of medium.
After an incubation period of 48 hours at 37° C. in humidified environment at 5% CO2 /O2, 0.5 microCi of ^3 H-TMD (specific activity 2 Ci/mmoles) were added and the incubation was protracted for further 24 hours.
Cells were collected by filtration (Tretertek Cell Harnester) and the incorporated radioactivity was measured by Packard TRI-CARB 4530 scintillator.
The mitogenetic effect was expressed as percentage increase in the incorporation of ^3 H-TMD in lymphocytes incubated with the compounds of formula I at the concentration of 1 μM with respect to the basal incorporation value.

Each structure is given as a SMILES string. Structures can show the parent of a compound that is named as a salt.

As to `CC(C)C[C@H](NC(=O)[C@@H](O)[C@H](N)Cc1ccc(S(C)(=O)=O)cc1)C(=O)O` [Example 3, N-[(2S,3R)-3-amino-2-hydroxy-4-(4-methylsulfonylphenyl)-butanoyl]-L-leucine], the IC50 in assay [1] turned out to be 10 nM.

For `CC(C)C[C@H](NC(=O)[C@H](O)[C@@H](N)Cc1ccc(S(C)(=O)=O)cc1)C(=O)O` [Example 4, N-[(2R,3S)-3-amino-2-hydroxy-4-(4-methylsulfonylphenyl)-butanoyl]-L-leucine], in assay [2], the “percentage increase in the incorporation of 3H-TMD in lymphocytes with respect to the basal incorporation value” was found to be 109%.

Consider `CSc1ccc(C[C@@H](N)[C@H](O)C(=O)N[C@@H](CC(C)C)C(=O)O)cc1` [Example 11, N-[(2S,3R)-3-amino-2-hydroxy-4-(4-methylthiophenyl)-butanoyl]-L-leucine hydrobromide], for which the IC50 in assay [1] was found to be 11 nM.
